{"source": "patent US4539331A", "about": "“Imidazole carboxamide derivatives and pharmaceutical compositions thereof” (priority 1981, dated 1985)", "key": {"solubility": {"assay": "solubility", "format": "physicochemical"}, "carrageenin oedema": {"tested_on": "carrageenin oedema", "assay": "carrageenin oedema method (anti-inflammatory activity)", "format": "in vivo", "conditions": "Rattus norvegicus; oral"}, "writhing": {"tested_on": "writhing", "assay": "writhing test (analgesic activity)", "format": "in vivo, mouse", "conditions": "for ED50: Mus musculus, ip"}, "beer yeast induced fever": {"tested_on": "beer yeast induced fever", "assay": "beer yeast induced fever (antipyretic activity)", "format": "in vivo"}, "acute toxicity, mouse": {"assay": "acute toxicity, mouse", "conditions": "in vivo", "description": "(§1) The acute toxicity in the rat and mouse is low"}, "acute toxicity, rat": {"assay": "acute toxicity, rat", "conditions": "in vivo", "description": "as §1"}, "gastric mucous": {"tested_on": "gastric mucous", "format": "in vivo, rat", "description": "In the gastric tolerance test, the product was compared with aspirin and phenylbutazone on the rat, with oral administration."}}, "note": "Where two headings read alike, the source gives them in different places.", "data": [{"smiles": "Cc1ccc(NC(=O)c2nc[nH]c2C)cc1Cl", "note": "[Example 1, N-(3-chloro-4-methylphenyl)-5-methyl-4-imidazolecarboxamide]", "values": [{"measurement": "solubility in acetone", "setting": "solubility; acetone", "result": "soluble"}, {"measurement": "solubility in an acid aqueous medium", "setting": "solubility; acid aqueous medium", "result": "sparingly soluble"}, {"measurement": "solubility in chloroform", "setting": "solubility; chloroform", "result": "moderately soluble"}, {"measurement": "solubility in ethanol", "setting": "solubility; ethanol", "result": "soluble"}, {"measurement": "solubility in isopropanol", "setting": "solubility; isopropanol", "result": "soluble"}, {"measurement": "solubility in methanol", "setting": "solubility; methanol", "result": "soluble"}, {"measurement": "solubility in toluene", "setting": "solubility; toluene", "result": "insoluble"}, {"measurement": "solubility in water", "setting": "solubility; water", "result": "insoluble"}, {"measurement": "ED50", "setting": "carrageenin oedema", "result": 60, "unit": "mg/kg"}, {"measurement": "ED50", "setting": "writhing; read-out: ED50", "result": 30, "unit": "mg/kg"}, {"measurement": "analgesic action relative to aspirin", "setting": "writhing; relative to aspirin", "result": 1.5, "unit": "times"}, {"measurement": "ED50", "setting": "beer yeast induced fever; oral, read-out: ED50", "result": 48, "unit": "mg/kg"}, {"measurement": "antipyretic activity relative to aspirin", "setting": "beer yeast induced fever; relative to aspirin", "result": "three times that of aspirin"}, {"measurement": "antipyretic activity relative to pyramidon", "setting": "beer yeast induced fever; relative to pyramidon", "result": "slightly superior to that of pyramidon"}, {"measurement": "LD50", "setting": "acute toxicity, mouse; ip", "result": 700, "unit": "mg/kg"}, {"measurement": "LD50", "setting": "acute toxicity, mouse; oral", "result": "> 8000", "unit": "mg/kg"}, {"measurement": "LD50", "setting": "acute toxicity, rat; ip", "result": 560, "unit": "mg/kg"}, {"measurement": "LD50", "setting": "acute toxicity, rat; oral", "result": "> 12000", "unit": "mg/kg"}]}, {"smiles": "Cc1cc(NC(=O)c2nc[nH]c2C)ccc1[N+](=O)[O-]", "note": "[Example 5b, N-(3-methyl-4-nitrophenyl)-5-methyl-4-imidazolecarboxamide]", "values": [{"measurement": "ED50", "setting": "writhing; read-out: ED50", "result": 35, "unit": "mg/kg"}, {"measurement": "ED50", "setting": "beer yeast induced fever; oral, read-out: ED50", "result": 58, "unit": "mg/kg"}]}, {"smiles": "CCCCC1C(=O)N(c2ccccc2)N(c2ccccc2)C1=O", "note": "[Phenylbutazone, reference compound]", "values": [{"measurement": "gastric alterations", "setting": "gastric mucous; rat, in vivo, po, 200 mg/kg", "result": "haemorrhage spots, congestion and oedema"}, {"measurement": "ED50", "setting": "carrageenin oedema", "result": 45, "unit": "mg/kg"}]}, {"smiles": "CC(=O)Oc1ccccc1C(=O)O", "note": "[Aspirin, reference compound]", "values": [{"measurement": "gastric alterations", "setting": "gastric mucous; oral, 1000 mg/kg", "result": "haemorrhage spots, congestion and oedema"}, {"measurement": "ED50", "setting": "writhing", "result": 45, "unit": "mg/kg"}, {"measurement": "ED50", "setting": "beer yeast induced fever; po", "result": 140, "unit": "mg/kg"}]}, {"smiles": "Cc1c(N(C)C)c(=O)n(-c2ccccc2)n1C", "note": "[Pyramidon, reference compound]", "values": [{"measurement": "ED50", "setting": "beer yeast induced fever; oral, read-out: ED50", "result": 55, "unit": "mg/kg"}]}, {"smiles": "COc1ccc(Cl)cc1NC(=O)c1nc[nH]c1C", "note": "[Example 5a, N-(5-chloro-2-methoxyphenyl)-5-methyl-4-imidazolecarboxamide]", "values": [{"measurement": "ED50", "setting": "carrageenin oedema", "result": 78, "unit": "mg/kg"}]}, {"smiles": "Cc1ccc(F)cc1NC(=O)c1nc[nH]c1C", "note": "[Example 5c, N-(5-fluoro-2-methylphenyl)-5-methyl-4-imidazolecarboxamide]", "values": [{"measurement": "ED50", "setting": "writhing; read-out: ED50", "result": 50, "unit": "mg/kg"}]}, {"smiles": "Cc1[nH]cnc1C(=O)Nc1ccc(Cl)c([N+](=O)[O-])c1", "note": "[Example 5h, N-(4-chloro-3-nitrophenyl)-5-methyl-4-imidazolecarboxamide]", "values": [{"measurement": "ED50", "setting": "writhing; read-out: ED50", "result": 33, "unit": "mg/kg"}]}]}
